These results are taken from patent US9650423B2, “Long peptides of 22-45 amino acid residues that induce and/or enhance antigen specific immune responses” (priority 2000, dated 2017).

“And” between values parts separate entries of the source, which are not always exact repeats. Identical values can stand only once. Residues, ends and D or L forms follow the SMILES beside them. No end group written: not given here.

The IC50 is the concentration that inhibits the measured activity by half.

Experiment [1] addresses T1, HLA-DR1 (DRB*0101) (Homo sapiens, UniProt P01903+P01911, A100R/D57E/F55L/F60I/F76Y/I96L/L162R/M171V/P40L/Q125E/R42F/V115G/Y59C).
T1 construct: endogenous in cells; host or cells: LG2.1 B-lymphoblastic cell line, homozygous for HLA-DR
Put plainly: biochemical. The following applies: read-out: Binding DR1, IC50. The format is binding.

Experiment [2] addresses HLA-DR2 (DRB1*0201). The experiment is described as follows: HLA-DR-peptide binding assay. Further details: species or system human. As to conditions: HPV16-E7 22-mer peptides; >70 indicates undetectable binding; read-out: Binding DR2, IC50.
Experiment [3] addresses HLA-DR3 (DRB*0301). The experiment is described as follows: HLA-DR-peptide binding assay. As to conditions: HPV16-E7 22-mer peptides; >70 indicates undetectable binding; read-out: Binding DR3, IC50. Also on record: species or system human.
Experiment [4] deals with HLA-DR4 (DRB*0401). The experiment is described as follows: HLA-DR-peptide binding assay. Further details: species or system human. As to conditions: HPV16-E7 22-mer peptides; >70 indicates undetectable binding; read-out: Binding DR4, IC50.
In experiment [5] the test system is HPV16 E7-specific T-helper clones. Put plainly: HPV16 E7-specific Th-clones: proliferation and IFNγ production. The experiment is classed as cell-based, human. As to conditions: Th-clone from HLA-DR15, 4 and DQ6,7 positive PBMC raised against peptide E741-62. How it is done: Peptide-specific T-cell bulk cultures were generated as described previously (van der Burg et al., 1999) using either the E7 22-mer or E7 35-mer peptides. Specific proliferation was measured by incubation of 50,000 responders with an equal amount of irradiated (30Gy) APC (autologous PBMC unless indicated otherwise) and peptide or protein as indicated. E7-peptide and -protein-specific bulk T-cells were cloned by limiting dilution as described previously (van der Burg et al., 1999).
To determine specific excretion of cytokines, T-cell clones were stimulated by incubation of 50.000 T-cells with an equal amount of APC (30Gy) together with 10 μg/ml peptide, control peptide, E7 protein or control protein as indicated. After 24 hours of incubation, supernatant was harvested and replicate wells were pooled. Cytokine production was measured by Enzyme-Linked Immunosorbent Assay (ELISA) as described previously (van der Burg et al., 1999).

In experiment [6] the test system is HLA-DR 1, 2, 3, 4 and 7. The experiment is described as follows: HLA-DR-peptide binding assay, summary over the molecules tested. Also on record: species or system human. As to conditions: E7 peptides tested on HLA-DR 1, 2, 3, 4 and 7. The protocol:
The analysis of peptide binding to purified DR molecules was performed using N-terminally fluorescence-labelled standard peptides.

In experiment [7] the target is HLA-DR7 (DRB1*0701) (Homo sapiens, UniProt P01903+P01911, A100R/A102G/A103Q/D57E/D86V/E43K/F76Y/K127E/L162R/M171V/P40G/Q125H/Q99D/R33Q/R42Y/R54Q/S133A/S66F/T210M/V115G/Y107V/Y59L/Y89S). As to conditions: read-out: Binding DR7, IC50.
For experiment [8], the system named is PBMC of HLA-DR1 positive blood donors. Put plainly: Proliferation of PBMC stimulated with long E6 peptides. The experiment is classed as cell-based, human. The following applies: two HLA-DR1 positive donors, stimulated with pool of two 35-mer peptides covering E6 109-158. How it is done:
Furthermore, PBMC of two different HLA-DR1 positive blood donors were stimulated with a pool of two long 35-mer peptides that together covered E6 109-158. […] A CD4+ T-helper clone derived from one of these bulks was analysed further and specifically proliferated and produced IFNγ when stimulated with HPV16 E6 peptide and HPV16 E6 protein in a HLA-DR1 restricted manner (FIG. 16).
FIGS. 16a-16d depict a peptide E6127-158 induced T-cell response that recognizes naturally processed Ag. PBMC from a healthy HLA-DR1 positive blood donor were stimulated four times with peptide E6127-158. FIGS. 16a and 16b are entitled E6 127-158 stimulated HLA-DR1+PBMC. Proliferation of the bulk T-cell culture (top, left, 16a) and IFNγ production (top, right, 16b) is depicted. FIGS. 16c and 16d are entitled E6 127-158 stimulated PBMC derived clone 9 HLA-DR restriction in proliferation and IFNγ production. The specific proliferation (bottom, left, 16c) and IFNγ production (bottom, right, 16d) of the T-helper clone, derived from the bulk T-cell culture, and HLA-restriction when stimulated with E6127-158, or E6 protein is depicted. (See, also, FIGS. 1a-1d and associated descriptions).

Experiment [9] concerns E7 49-57-specific CD8+ T cells. Put plainly: Vaccination, H-2Db E7 49-57 tetramer staining of spleen cultures. The format is in vivo, C57BL/6 mice. The following applies: B6 mice. The protocol: (§1) Immunization strategies. C57BL/6 mice were injected subcutaneously with either 50 μg E7^49-57 peptide or 150 μg E7^43-77 35-mer dissolved in PBS in order to achieve similar molar levels of the E7^49-57 CTL epitope in both cases. Combinations with various adjuvantia were tested. In the case of IFA and Montanide, the dissolved peptides were emulsified in 50% of these respective substances. ODN-CpG (50 μg/mouse), MPL (10 μg/mouse) and GM-CSF (4 μg/mouse) were all dissolved in PBS and mixed with the peptides before subcutaneous vaccination. The total injected volume was 200 μl/mouse.
T cell cultures. T cells were obtained from immunized mice by culturing spleen cells (5×10^6 cells/well of a 24-wells plate) in complete medium in the presence of 0.5×10^6 E7^49-57-expressing cells (tumor cell line 13.2) or, when indicated, in the presence of D1 cells.
Tetramer staining. Spleen cultures, stimulated with tumor cell line 13.2 for seven days, were transferred at an amount of 40×10^4 per well to 96-well V-bottom microtiter plates and washed twice with PBS/BSA 0.5%. Subsequently, PE-labelled E749-57-containing tetramer was added. After 30 minutes of incubation at room temperature, cells were washed twice with PBS/BSA 0.5% and incubated with FITC-labelled anti CD8b Ab for 30 minutes. Subsequently cells were washed twice in PBS/BSA 0.5%, suspended in PBS/BSA 0.5% containing Propidium Iodide (PI) (0.5) μg/ml) and transferred to tubes. Cell samples were analysed in a FACSCalibur flow cytometer (Becton Dickinson, San Jose, Calif., USA) using CellQuest software. A total of 20×10^4 events was analysed for fluorescence intensity. Debris was gated out using the PI staining and subsequently the CD8^+ fraction was gated. […] As a positive control the HPV16 E7 specific CTL clone 9.5 was used.

Experiment [10] concerns E7 43-77-specific IFNγ-producing CD4+ T cells. The experiment is described as follows: Vaccination, intracellular IFN-γ staining of CD4+ T cells. The following applies: B6 mice, vaccinated once, IFA. The format is in vivo, C57BL/6 mice. The protocol: as §1
Before use, the D1 cells were incubated for 16 hours with the E7^43-77 35-mer and subsequently activated by adding LPS (10 μg/ml) for 6 hours and then thoroughly washed. Complete medium consists of Iscove's Modified Dulbecco's Medium (IMDM; BioWhittaker, Walkersville, Md., USA) supplemented with 8% FCS, 100 IU/ml penicillin, 2 mM glutamine (ICN, Aurora, Ohio, USA) and 30 μM 2-ME (Merck, Darmstadt, Germany). Cultures were maintained at 37° C. in humidified air containing 5% CO2. No exogenous IL-2 was added. […]
Intracellular cytokine staining. […] Subsequently, the percentage of CD8^+ and CD4^+ IFN-γ producing T cells was measured as described before (van der Burg et al., 2001).

The subject of experiment [11] is E7 49-57-specific CD8+ T cells. The experiment is described as follows: Vaccination, H-2Db E7 49-57 tetramer staining of spleen cultures. The following applies: MHC class II−/− mice. The format is in vivo, C57BL/6 mice.
Experiment [12] has as its system Ad5E1-expressing tumors. As to conditions: Toes et al., 1996a, 1996b; cited from earlier work.
Experiment [13] deals with PBMC or cord blood cells (CBC). The experiment is classed as cell-based, human.

Turning to `CC[C@H](C)[C@H](NC(=O)[C@H](CC(N)=O)NC(=O)[C@H](Cc1ccc(O)cc1)NC(=O)[C@H](Cc1c[nH]cn1)NC(=O)[C@H](C)NC(=O)[C@H](CCCNC(=N)N)NC(=O)[C@H](CC(=O)O)NC(=O)[C@@H]1CCCN1C(=O)[C@H](CCC(=O)O)NC(=O)[C@H](C)NC(=O)[C@H](CCC(N)=O)NC(=O)CNC(=O)[C@H](C)NC(=O)[C@@H]1CCCN1)C(=O)N[C@H](C(=O)N[C@H](C(=O)N[C@@H](Cc1ccccc1)C(=O)N[C@@H](CS)C(=O)N[C@@H](CS)C(=O)N[C@@H](CCCCN)C(=O)N[C@@H](CS)C(=O)N[C@@H](CC(=O)O)C(=O)O)[C@@H](C)O)C(C)C` [E7 41-62] (H-PAGQAEPDRAHYNIVTFCCKCD-OH; N-terminus and C-terminus assumed), the IC50 in experiment [1] is 7.4 µM; in [2], 50 µM; in experiment [3], 55 µM; in experiment [4], 38 µM; in experiment [7] it was more than 70 µM. Also, in experiment [5], the “response of HLA-DR15 restricted Th-clone to pulsed APC” value is listed as “specifically respond”. For the same compound, the HLA-DR molecules bound entry in [6] was “bound to DR1, 2, 3 and 4”.
With “E6 121-142: 22-mer peptide, amino acids 121-142 of HPV16 E6 protein (EKQRHLDKKQRFHNIRGRWTGR; UniProt P03126 121-142, looked up, fragment)”, the “specific proliferation of PBMC” value in experiment [8] was “proliferated specifically”.
In the case of “E6 127-158: peptide, amino acids 127-158 of HPV16 E6 protein (DKKQRFHNIRGRWTGRCMSCCRSSRTRRETQL)”, the “specific proliferation of PBMC” value in experiment [8] is “proliferated specifically”.
On the same count and under the same terms, as for “E6 protein: recombinant HPV16-E6 protein produced in E. coli (DKKQRFHNIRGRWTGRCMSCCRSSRTRRETQL) [reference compound]”, the entry is “proliferated specifically”.
As for “GQAEPDRAHYNIVTFCCKCDSTLRLCVQSTHVDIR [E7 43-77]”, in experiment [5], the “response of HLA-DR15 restricted Th-clone to pulsed APC” value is given as “specifically respond”. The “E7 49-57-specific CD8+ T cell response” value in experiment [9] (prime-boost, IFA) is given as “vigorous”. Besides, the “mice with E7 49-57-specific CTL response” value in [9] (primed and boosted 50 days later, IFA) is 9/11. Moreover, the “E7 49-57-specific CD8+ T cells, mean” value in [9] (primed and boosted, IFA) was determined as 19%. Further, in [9] (primed and boosted, IFA), the “E7 49-57-specific CD8+ T cells, range” value is 5-40%. Also, the “E7 49-57-specific CTL response” value in [9] (vaccinated once, GM-CSF and IFA) is recorded as “moderate”; in experiment [9] (vaccinated once, Montanide adjuvant), “no responses were observed”; in experiment [9] (vaccinated once, combined with anti-CD40 antibody or GM-CSF) it was “no or minimal CTL responses”. For the same compound, the “CD8+ T cells stained with tetramers” value in [9] (vaccinated once, IFA, responders) was approximately 5%. Also, the “mice responding to the vaccine (tetramer staining)” value in experiment [9] (vaccinated once, IFA, spleens day 10) is given as 3 out of 9. Besides, the “mice with E7 49-57-specific CTL responses” value in experiment [9] (vaccinated once, MPL or ODN-CpG) is listed as “in all mice”. The “level of the CTL response” value in [9] (vaccinated once, MPL or ODN-CpG, majority of animals) is listed as “up to 40 % of CD8+ T cells”. For the same compound, the “E7 43-77-specific IFNγ-producing CD4+ T cells” value in experiment [10] is not below 5%. Further, the CTL responses result in [11] (one vaccination, ODN-CpG) is recorded as “robust CTL responses”. Besides, in experiment [11] (prime-boost, IFA), the “number of E7 49-57-specific CTL” value is reported as “far lower than found in B6 mice after two vaccinations”.
With “SGPSNTPPEI (minimal E1A-derived CTL epitope)”, in [12], the “effect of peptide vaccination on outgrowth of Ad5E1-expressing tumors” value is listed as “enhances rather than inhibits the growth”.
For STHVDIRTLEDLLMGTLGIVCP [E7 71-92], the IC50 in experiment [1] is 12 µM; in [2] it was 2 µM; in [3], more than 70 µM; in experiment [4] it was more than 70 µM; in [7] it was more than 70 µM. In experiment [13], the “number of antigen-specific cells (IFNγ ELISPOT)” value was 2 per 100,000 cord blood cells or PBMC and <1 per 100,000 cord blood cells or PBMC.
